Measurements taken from the supplement of paper PMC13207355.

Key:
Conditions in all cases: exposure time: 72 h
E13 [1] = patient-derived glioblastoma stem cells of classical subtype; assay: surviving fraction (nuclei count normalised to DMSO); higher = more cells surviving (less toxic)
E21 [2] = patient-derived glioblastoma stem cells of mesenchymal subtype; assay: as above
E28 [3] = patient-derived glioblastoma stem cells of classical subtype; assay: as above
E31 [4] = patient-derived glioblastoma stem cells of proneural subtype; assay: as above
E34 [5] = patient-derived glioblastoma stem cells of proneural subtype; assay: as above
E57 [6] = patient-derived glioblastoma stem cells of mesenchymal subtype; assay: as above
FT3469 [7] = normal neural stem cell line; assay: as above
E13 [8] = assay: phenotypic distance (Euclidean, principal components) from DMSO controls (arbitrary units); higher = stronger morphological change
E21 [9] = assay: as above
E28 [10] = assay: as above
E31 [11] = assay: as above
E34 [12] = assay: as above
E57 [13] = assay: as above
FT3469 [14] = assay: as above
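Throughout, for phenotypic distance (Euclidean, principal components) from DMSO controls: cell Painting imaging in 384-well plates, CellProfiler features reduced to at least 20 principal components, Euclidean distance versus same-plate DMSO vehicle wells (0.1% v/v), median over six images per well.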
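Throughout, for surviving fraction (nuclei count normalised to DMSO): nuclei counted by high-content imaging of Hoechst-stained cells in laminin-coated 384-well plates, relative to 0.1% DMSO vehicle wells, with staurosporine as cell-death control.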

CC(=O)O[C@@]12CO[C@@H]1C[C@H](O)[C@@]1(C)C(=O)[C@H](O)C3=C(C)[C@@H](OC(=O)[C@H](O)[C@@H](NC(=O)OC(C)(C)C)c4ccccc4)C[C@@](O)([C@@H](OC(=O)c4ccccc4)[C@H]21)C3(C)C [Docetaxel]
Conditions	phenotypic distance	surviving fraction
E13 [1], 4.1 nM	–	0.244
E13 [1], 12.3 nM	–	0.245
E13 [1], 37 nM	–	0.23
E13 [1], 111.1 nM	–	0.267
E13 [1], 333.3 nM	–	0.26
E13 [1], 1000 nM	–	0.245
E13 [1], 3000 nM	–	0.233
E13 [8], 4.1 nM	5.48	–
E13 [8], 12.3 nM	5.06	–
E13 [8], 37 nM	5.13	–
E13 [8], 111.1 nM	5.06	–
E13 [8], 333.3 nM	5.38	–
E13 [8], 1000 nM	5.66	–
E13 [8], 3000 nM	5.29	–
E21 [2], 4.1 nM	–	0.256
E21 [2], 12.3 nM	–	0.291
E21 [2], 37 nM	–	0.273
E21 [2], 111.1 nM	–	0.267
E21 [2], 333.3 nM	–	0.324
E21 [2], 1000 nM	–	0.366
E21 [2], 3000 nM	–	0.306
E21 [9], 4.1 nM	5.81	–
E21 [9], 12.3 nM	6.42	–
E21 [9], 37 nM	6.23	–
E21 [9], 111.1 nM	6.28	–
E21 [9], 333.3 nM	6.05	–
E21 [9], 1000 nM	6.55	–
E21 [9], 3000 nM	6.95	–
E28 [3], 4.1 nM	–	0.337
E28 [3], 12.3 nM	–	0.342
E28 [3], 37 nM	–	0.315
E28 [3], 111.1 nM	–	0.374
E28 [3], 333.3 nM	–	0.359
E28 [3], 1000 nM	–	0.377
E28 [3], 3000 nM	–	0.43
E28 [10], 4.1 nM	3.2	–
E28 [10], 12.3 nM	3.04	–
E28 [10], 37 nM	3.71	–
E28 [10], 111.1 nM	4	–
E28 [10], 333.3 nM	4.1	–
E28 [10], 1000 nM	3.51	–
E28 [10], 3000 nM	3.95	–
E31 [4], 4.1 nM	–	0.175
E31 [4], 12.3 nM	–	0.112
E31 [4], 37 nM	–	0.146
E31 [4], 111.1 nM	–	0.157
E31 [4], 333.3 nM	–	0.134
E31 [4], 1000 nM	–	0.164
E31 [4], 3000 nM	–	0.2
E31 [11], 4.1 nM	3.61	–
E31 [11], 12.3 nM	4.17	–
E31 [11], 37 nM	4.04	–
E31 [11], 111.1 nM	3.51	–
E31 [11], 333.3 nM	4.45	–
E31 [11], 1000 nM	4.14	–
E31 [11], 3000 nM	3.26	–
E34 [5], 4.1 nM	–	0.43
E34 [5], 12.3 nM	–	0.452
E34 [5], 37 nM	–	0.497
E34 [5], 111.1 nM	–	0.38
E34 [5], 333.3 nM	–	0.438
E34 [5], 1000 nM	–	0.423
E34 [5], 3000 nM	–	0.551
E34 [12], 4.1 nM	4.14	–
E34 [12], 12.3 nM	3.76	–
E34 [12], 37 nM	3.17	–
E34 [12], 111.1 nM	3.96	–
E34 [12], 333.3 nM	3.99	–
E34 [12], 1000 nM	3.89	–
E34 [12], 3000 nM	3.75	–
E57 [6], 4.1 nM	–	0.0834
E57 [6], 12.3 nM	–	0.0809
E57 [6], 37 nM	–	0.078
E57 [6], 111.1 nM	–	0.0677
E57 [6], 333.3 nM	–	0.0873
E57 [6], 1000 nM	–	0.0902
E57 [6], 3000 nM	–	0.109
E57 [13], 4.1 nM	5.76	–
E57 [13], 12.3 nM	5.68	–
E57 [13], 37 nM	5.22	–
E57 [13], 111.1 nM	5.42	–
E57 [13], 333.3 nM	5.4	–
E57 [13], 1000 nM	5.4	–
E57 [13], 3000 nM	5.26	–
FT3469 [7], 4.1 nM	–	0.529
FT3469 [7], 12.3 nM	–	0.614
FT3469 [7], 37 nM	–	0.452
FT3469 [7], 111.1 nM	–	0.513
FT3469 [7], 333.3 nM	–	0.572
FT3469 [7], 1000 nM	–	0.497
FT3469 [7], 3000 nM	–	0.556
FT3469 [14], 4.1 nM	4.07	–
FT3469 [14], 12.3 nM	4.02	–
FT3469 [14], 37 nM	3.93	–
FT3469 [14], 111.1 nM	4.46	–
FT3469 [14], 333.3 nM	4.18	–
FT3469 [14], 1000 nM	4.11	–
FT3469 [14], 3000 nM	4.57	–

CN1C(=O)OC(C)(C)C1=O [Trimethadione]
Conditions	phenotypic distance	surviving fraction
E13 [1], 4.1 nM	–	0.872
E13 [1], 12.3 nM	–	1.05
E13 [1], 37 nM	–	0.904
E13 [1], 111.1 nM	–	0.943
E13 [1], 333.3 nM	–	0.94
E13 [1], 1000 nM	–	1.07
E13 [1], 3000 nM	–	0.9
E13 [8], 4.1 nM	0.619	–
E13 [8], 12.3 nM	0.485	–
E13 [8], 37 nM	0.498	–
E13 [8], 111.1 nM	0.332	–
E13 [8], 333.3 nM	0.419	–
E13 [8], 1000 nM	0.395	–
E13 [8], 3000 nM	0.509	–
E21 [2], 4.1 nM	–	0.949
E21 [2], 12.3 nM	–	1.02
E21 [2], 37 nM	–	0.937
E21 [2], 111.1 nM	–	1.05
E21 [2], 333.3 nM	–	1.01
E21 [2], 1000 nM	–	0.949
E21 [2], 3000 nM	–	1.03
E21 [9], 4.1 nM	0.779	–
E21 [9], 12.3 nM	0.495	–
E21 [9], 37 nM	0.506	–
E21 [9], 111.1 nM	0.324	–
E21 [9], 333.3 nM	0.36	–
E21 [9], 1000 nM	0.29	–
E21 [9], 3000 nM	0.461	–
E28 [3], 4.1 nM	–	0.994
E28 [3], 12.3 nM	–	1.14
E28 [3], 37 nM	–	0.959
E28 [3], 111.1 nM	–	1.03
E28 [3], 333.3 nM	–	1
E28 [3], 1000 nM	–	1
E28 [3], 3000 nM	–	0.903
E28 [10], 4.1 nM	0.624	–
E28 [10], 12.3 nM	0.657	–
E28 [10], 37 nM	0.665	–
E28 [10], 111.1 nM	0.367	–
E28 [10], 333.3 nM	0.471	–
E28 [10], 1000 nM	0.385	–
E28 [10], 3000 nM	0.844	–
E31 [4], 4.1 nM	–	0.999
E31 [4], 12.3 nM	–	1.03
E31 [4], 37 nM	–	0.936
E31 [4], 111.1 nM	–	1.15
E31 [4], 333.3 nM	–	1.04
E31 [4], 1000 nM	–	1.01
E31 [4], 3000 nM	–	0.759
E31 [11], 4.1 nM	0.578	–
E31 [11], 12.3 nM	0.705	–
E31 [11], 37 nM	0.678	–
E31 [11], 111.1 nM	0.582	–
E31 [11], 333.3 nM	0.402	–
E31 [11], 1000 nM	0.343	–
E31 [11], 3000 nM	0.599	–
E34 [5], 4.1 nM	–	1.12
E34 [5], 12.3 nM	–	1.04
E34 [5], 37 nM	–	1.04
E34 [5], 111.1 nM	–	0.867
E34 [5], 333.3 nM	–	0.972
E34 [5], 1000 nM	–	0.961
E34 [5], 3000 nM	–	0.86
E34 [12], 4.1 nM	0.536	–
E34 [12], 12.3 nM	0.379	–
E34 [12], 37 nM	0.464	–
E34 [12], 111.1 nM	1.03	–
E34 [12], 333.3 nM	0.604	–
E34 [12], 1000 nM	0.565	–
E34 [12], 3000 nM	0.885	–
E57 [6], 4.1 nM	–	1.11
E57 [6], 12.3 nM	–	0.909
E57 [6], 37 nM	–	1.04
E57 [6], 111.1 nM	–	1.04
E57 [6], 333.3 nM	–	1
E57 [6], 1000 nM	–	0.96
E57 [6], 3000 nM	–	0.885
E57 [13], 4.1 nM	0.62	–
E57 [13], 12.3 nM	0.587	–
E57 [13], 37 nM	0.572	–
E57 [13], 111.1 nM	0.439	–
E57 [13], 333.3 nM	0.455	–
E57 [13], 1000 nM	1.11	–
E57 [13], 3000 nM	0.844	–
FT3469 [7], 4.1 nM	–	1.05
FT3469 [7], 12.3 nM	–	0.973
FT3469 [7], 37 nM	–	0.987
FT3469 [7], 111.1 nM	–	1.03
FT3469 [7], 333.3 nM	–	0.983
FT3469 [7], 1000 nM	–	1.03
FT3469 [7], 3000 nM	–	0.855
FT3469 [14], 4.1 nM	0.493	–
FT3469 [14], 12.3 nM	0.946	–
FT3469 [14], 37 nM	0.598	–
FT3469 [14], 111.1 nM	0.319	–
FT3469 [14], 333.3 nM	0.852	–
FT3469 [14], 1000 nM	0.673	–
FT3469 [14], 3000 nM	0.994	–
